Experimental data taken from patent US20250357519A1, “APPLICATIONS OF O2-INSENSITIVE FORMATE DEHYDROGENASE” (UNIVERSITY OF MARYLAND, BALTIMORE, priority 2022, published 2025).
Like-named read-outs stand apart in the source and are kept apart here.

Columns and labels:
[1] = target: T1, Desulfovibrio vulgaris Hildenborough (DvH) FDH2, recombinant Strep-tag II-tagged (FDH2^Rec), large subunit DVU2482 SEQ ID NO: 31, small subunit DVU2481 SEQ ID N (Nitratidesulfovibrio vulgaris, UniProt Q728X0); test: PES/DCPIP assay of formate oxidation
T1 sequence (Q728X0 36-1003): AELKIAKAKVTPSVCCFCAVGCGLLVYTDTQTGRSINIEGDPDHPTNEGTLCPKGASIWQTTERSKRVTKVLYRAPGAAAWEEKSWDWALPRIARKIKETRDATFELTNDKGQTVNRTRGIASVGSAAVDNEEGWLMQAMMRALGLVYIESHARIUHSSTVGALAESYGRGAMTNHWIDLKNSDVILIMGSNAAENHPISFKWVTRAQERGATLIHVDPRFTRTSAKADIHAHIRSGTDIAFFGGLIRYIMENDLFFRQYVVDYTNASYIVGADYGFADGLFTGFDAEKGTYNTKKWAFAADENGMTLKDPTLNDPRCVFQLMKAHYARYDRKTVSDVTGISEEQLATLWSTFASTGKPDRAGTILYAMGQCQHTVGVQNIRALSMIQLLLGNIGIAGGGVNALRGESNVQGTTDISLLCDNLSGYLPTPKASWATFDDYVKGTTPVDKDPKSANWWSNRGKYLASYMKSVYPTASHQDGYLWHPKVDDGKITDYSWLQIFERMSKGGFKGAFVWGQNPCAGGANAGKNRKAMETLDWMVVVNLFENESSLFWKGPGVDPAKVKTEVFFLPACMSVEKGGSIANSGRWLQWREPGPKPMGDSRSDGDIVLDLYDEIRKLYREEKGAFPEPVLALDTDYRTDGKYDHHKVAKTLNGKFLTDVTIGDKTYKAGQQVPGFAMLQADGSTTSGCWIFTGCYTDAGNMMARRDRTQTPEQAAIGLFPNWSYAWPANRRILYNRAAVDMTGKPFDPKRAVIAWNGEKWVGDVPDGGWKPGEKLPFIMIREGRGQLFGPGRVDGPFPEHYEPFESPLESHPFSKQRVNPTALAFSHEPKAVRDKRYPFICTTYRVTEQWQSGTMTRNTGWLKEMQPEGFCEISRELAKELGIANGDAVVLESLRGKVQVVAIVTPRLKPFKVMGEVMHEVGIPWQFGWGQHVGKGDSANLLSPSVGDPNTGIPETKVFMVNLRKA
T1 sequence (Q728X1 1-260 partner): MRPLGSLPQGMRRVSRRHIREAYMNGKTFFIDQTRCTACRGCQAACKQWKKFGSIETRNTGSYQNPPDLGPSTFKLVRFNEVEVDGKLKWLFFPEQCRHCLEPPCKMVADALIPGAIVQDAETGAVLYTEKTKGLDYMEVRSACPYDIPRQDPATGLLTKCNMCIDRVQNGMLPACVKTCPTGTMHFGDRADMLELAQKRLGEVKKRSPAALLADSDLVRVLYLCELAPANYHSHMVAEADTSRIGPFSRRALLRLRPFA

[2] = tested on: Desulfovibrio vulgaris Hildenborough (DvH) FDH2, wild-type natively-purified (FDH2^WT), large subunit DVU2482 SEQ ID NO: 31, small subunit DVU2481 SEQ ID NO: …; details: cited from earlier work
[3] = tested on: Desulfovibrio vulgaris Hildenborough (DvH) Mo-FDH3, wild-type natively-purified (Mo-FDH3^WT); details: pH 7.6, RT, 2 mM BV, 0.25 nM enzyme; Da Silva et al (2011); cited from earlier work
[4] = tested on: Desulfovibrio desulfuricans (Dd) Mo-FDH3, wild-type natively-purified (Mo-FDH3^WT); details: cited from earlier work
[5] = tested on: Desulfovibrio vulgaris Hildenborough (DvH) W-FDH1, wild-type natively-purified (W-FDH1^WT), large subunit DVU0587 SEQ ID NO: 29, small subunit DVU0588 SEQ ID …; details: pH 7.6, RT, 2 mM BV, cited from earlier work
[6] = tested on: Desulfovibrio gigas (Dg) W-FDH1, wild-type natively-purified (W-FDH1^WT); details: pH 8.0, 37 °C, 7.5 mM BV, 35 nM enzyme; Mota (2011); cited from earlier work
[7] = BV (2 mM), anaerobic, 1 replicate, da Silva et al (2011), Table 4
[8] = pH 7.6, RT, 2 mM BV, 0.48 nM enzyme, Da Silva et al (2011)
[9] = pH 7.6, 37 °C, 7.5 mM BV, 35 nM enzyme, Rivas et al (2007)
[10] = pH 8.0, 22 °C, 5 mM BV, 1 nM enzyme, Maia et al (2016)
[11] = pH 8.0, 37 °C, 7.5 mM BV, 35 nM enzyme, Mota (2011)
[12] = 0.0124 nM enzyme, Da Silva et al (2011)

SMILES: O=CO [formate]
- kcat ([1]; DCPIP (air), full progress curve global fit): 354 ± 5 s⁻¹
- kcat ([1]; DCPIP (anaerobic), full progress curve global fit): 258 ± 3 s⁻¹
- kcat ([1]; PES/DCPIP, air, initial velocities, 10 replicates, pH 8.0): 317 ± 14 s⁻¹
- TN (kcat) relative to that obtained with 2 mM BV ([1]; PES/DCPIP, anaerobic full-progress curves vs 2 mM BV): ~5 fold
- kcat ([1]; PES/DCPIP, anaerobic, initial velocities, 5 replicates, pH 8.0): 220 ± 5 s⁻¹
- TN (kcat) for formate oxidation relative to Mo-Cys-FDH from Rhodobacter capsulatus ([1]; PES/DCPIP, comparator with NAD^+ as acceptor (ref 40)): roughly an order of magnitude
- binding constant (Km) for formate ([1]; general statement, 1.6 nM enzyme, formate 0 to 100 μM): low micromolar range
- Km [2, 7]: 4 µM
- kcat [2, 7]: 81 s⁻¹
- Km [2, 8]: 4 µM
- kcat [2, 8]: 81 s⁻¹
- Km [3]: 8 µM
- kcat [3]: 262 s⁻¹
- Km [4, 9]: 65 ± 8 µM
- kcat [4, 9]: 357 ± 18 s⁻¹
- Km [4, 10]: 57 µM
- kcat [4, 10]: 543 s⁻¹
- Km [4, 11]: 64 µM
- kcat [4, 11]: 347 s⁻¹
- Km [5, 12]: 1 µM
- kcat [5, 12]: 3684 s⁻¹
- kcat ([5]; 1.4 nM enzyme, Oliveira et al (2020)): 1104 ± 62 s⁻¹
- Km [6]: 51 µM
- kcat [6]: 174 s⁻¹
